# Reference: US8993000B2, “Method for inducing differentiation of dental pulp cells into odontoblasts” (National University Corporation Okayama University, priority 2009, dated 2015)
# Tested on: MEDP cells as a pulp-derived cell line
# Assay: Dspp expression by PCR in cultured MEDP pulp-derived cells (induction of differentiation into odontoblasts)
# Type: cell-based
# Conditions: for expression of Dspp (relative ratio of DSPP to GADPH amplification product): fibronectin-coated vessel; for expression of Dspp in a pulp-derived cell line: same technique as Example 1, addition concentration to be considered
# Procedure: In this example, MEDP cells as a pulp-derived cell line were cultured in a system including NaClO3, and the expression of Dspp in the cultured cells was confirmed. The expression of Dspp was confirmed by PCR.
# The MEDP cells were cultured using a DMEM medium containing 10% v/v fetal bovine serum (FBS). The cells were suspended in the medium so that the number of the cells was 3.7×10^5 cells/ml, and 5 ml of the cell suspension were added to a culture vessel having a diameter of 6 cm and cultured. The culture was carried out using a culture vessel coated with fibronectin (FN) at 37±0.5° C. On day 1 of the culture, […] was added so that the final concentration was 50 mM or 100 mM, and the cells were cultured for an additional 7 days.
# After mRNA had been extracted from the cultured cells using an RNeasy Mini Kit™ (manufactured by QIAGEN), reverse transcription was carried out using a PrimeScript™ Reverse Transcriptase (manufactured by TAKARA) to prepare cDNA, which was used as a sample for PCR. The extraction of mRNA and the preparation of cDNA were carried out in accordance with the manufacturer's instructions. Primers formed of base sequences set forth in SEQ ID NOS: 1 and 2 of the sequence listing were used as primers for amplification of DSPP, and primers formed of base sequences set forth in SEQ ID NOS: 3 and 4 of the sequence listing were used as primers for amplification of GADPH as a control gene. The PCR was carried out using a LightCycler™ (manufactured by Roche). The expression amount of DSPP was confirmed with a relative ratio between an amplification product of DSPP and an amplification product of GADPH.
# A treatment for inducing differentiation was carried out by the same technique as that of Example 1 except that LiCl was used in place of NaClO3 and LiCl was added so that the final concentration was 5 mM or 50 mM on day 1 of the culture. Then, the expression of Dspp was confirmed.
# A treatment for inducing differentiation was carried out by the same technique as that of Example 1 except that NaClO4 was used in place of NaClO3. Then, the expression of Dspp was confirmed.
# A treatment for inducing differentiation is carried out by the same technique as that of Example 1 except that Norrin (R&D Systems, Inc.: catalog No.: 3014-NR) is used in place of NaClO3. Then, the expression of Dspp is confirmed. The addition concentration of Norrin is to be considered.
# A treatment for inducing differentiation is carried out by the same technique as that of Example 1 except that R-Spondin2 (R&D Systems, Inc.: catalog No.: 3266-RS/CF) is used in place of NaClO3. Then, the expression of Dspp is confirmed. The addition concentration of R-Spondin2 is to be considered.
# [1] = 50 mM or 100 mM added on day 1, cultured additional 7 days
Molecule,expression of Dspp (relative ratio of DSPP to GADPH amplification product) [1],expression of Dspp in a pulp-derived cell line,also measured
"[Cl-].[Li+] [LiCl, lithium chloride]",,,"expression of Dspp (relative ratio of DSPP to GADPH amplification product) (5 mM or 50 mM added on day 1, cultured additional 7 days): significantly enhanced"
"[Na+].[O-][Cl+2]([O-])[O-] [NaClO3, sodium chlorate]",significantly enhanced,,
[O-][Cl+3]([O-])([O-])O [sodium perchlorate],significantly enhanced,,
"R-Spondin2: protein capable of directly activating a Wnt signaling pathway (R&D Systems, catalog No. 3266-RS/CF) (protein, UniProt Q6UXX9 22-243, looked up) R-spondin-2: QGNRWRRSKRASYVSNPICKGCLSCSKDNGCSRCQQKLFFFLRREGMRQYGECLHSCPSGYYGHRAPDMNRCARCRIENCDSCFSKDFCTKCKVGFYLHRGRCFDECPDGFAPLEETMECVEGCEVGHWSEWGTCSRNNRTCGFKWGLETRTRQIVKKPVKDTILCPTIAESRRCKMTMRHCPGGKRTPKAKEKRNKKKKRKLIERAQEQHSVFLATDRANQ",,significantly enhances,
"Norrin: protein capable of directly activating a Wnt signaling pathway (R&D Systems, catalog No. 3014-NR) (protein, UniProt Q00604 25-133, looked up) Norrin: KTDSSFIMDSDPRRCMRHHYVDSISHPLYKCSSKMVLLARCEGHCSQASRSEPLVSFSTVLKQPFRSSCHCCRPQTSKLKALRLRCSGGMRLTATYRYILSCHCEECNS",,significantly enhances,
